Test results published in patent US9034439B2, “Synthesis and applications of soluble pentacene precursors and related compounds” (Academia Sinica, priority 2008, dated 2015).
≈ marks a conversion by molar mass, not a printed value. Entries after “also recorded” stand apart in the source; their conditions may differ. Like-named read-outs stand apart in the source and are kept apart here.

Assays:
[1] = organic solvents; cited from earlier work
[2] = Solubility in organic solvents; format: physicochemical; settings: for solubility (comparison in words): organic solvents
[3] = Stability on storage / at ambient conditions; format: physicochemical
[4] = Thermal fragmentation / decomposition (thermogravimetric analysis, heating); format: physicochemical; settings: for thermal conversion of spin-cast film to pentacene: heating amorphous thin films cast from toluene
Method: FIG. 2 presents thermogravimetric analysis curves for compounds 1 (blue) and 2 (red) at 10° C./min heating rate, assessing the carbon monoxide (CO) expulsion reaction, in which the carbonyl bridge is released from the precursor for conversion to pentacene.
Melting points were taken on a Fargo MP-2D melting-point apparatus and were not corrected. UV spectra were recorded on a Hewlett-Packard 8453 spectrophotometer. Infrared spectra were measured on a Perkin-Elmer L118-F000 FT-IR spectrometer as either thin film or solid dispersion in KBr. Nuclear magnetic resonance spectra were recorded on Bruker AC300 and AV500 super-conducting FT NMR spectrometers with all chemical shifts reported in ppm from tetramethylsilane as an internal standard. Mass spectra were obtained on a Joel JMS 700 double focusing spectrometer. Elemental analyses were performed on a Perkin-Elmer 2400 elemental analyzer. Thermal gravimetric analyses were measured on a Perkin-Elmer Pyris 1 thermogravimetric analyzer. Differential scanning calorimetry was done on a Perkin-Elmer DCS-7 instrument. Column chromatography was carried out using 230-400 mesh silica gel.

[5] = heating; earlier reports; cited from earlier work
[6] = organic solvent or mixture, dichloromethane (DCM) and tetrahydrofuran (THF), read-out: solubility
[7] = toluene, solutions for spin-casting

SMILES: c1ccc(-c2ccc3cc4cc(-c5ccccc5)ccc4cc3c2)cc1 [Compound 37]
- solubility [1]: undesirably low solubility

SMILES: c1csc(-c2ccc3cc4cc(-c5cccs5)ccc4cc3c2)c1 [Compound 35]
- solubility [1]: undesirably low solubility

SMILES: O=C1C2c3ccccc3[C@@H]1c1cc3c(cc12)[C@@H]1C(=O)[C@@H]3c2ccccc21 [Compound 12]
- solubility (comparison in words) [2]: higher solubility than either compound 1 or 2
- stability (in words) [3]: stable at low temperature for a long period of time; also recorded: can be kept at −10 °C for an extended period of time

SMILES: C(=C\c1cccs1)/c1ccc2cc3cc(/C=C/c4cccs4)ccc3cc2c1 [Compound 36]
- solubility [1]: undesirably low solubility

SMILES: O=C1[C@@H]2c3ccccc3[C@@H]1c1cc3cc4ccccc4cc3cc12 [Compound 2]
- solubility [2, 6]: ~700 µg/mL (≈ 2280 µM)
- solubility (comparison in words) [2]: better than compound 1
- weight loss ([4]; thermogravimetric curve, corresponds to a CO unit): 10%
- stability (in words) [3]: stable at ambient temperature
- temperature of CO extrusion to pentacene [5]: 128 °C

SMILES: COC1(OC)C2(Cl)C(Cl)=C(Cl)C1(Cl)c1cc3cc4cc5c(cc4cc3cc12)C1(Cl)C(Cl)=C(Cl)C5(Cl)C1(OC)OC [Compound 23]
- solubility [2, 7]: good solubility
- decomposition temperature ([4]; anti isomer): 297 °C
- thermal conversion of spin-cast film to pentacene [4]: did not yield either pentacene or 1,2,3,4,8,9,10,11-octachloropentacene
- decomposition temperature ([4]; syn isomer): 271 °C

SMILES: O=C1C2C=CC1c1cc3c(cc12)[C@H]1C(=O)[C@H]3c2cc3c(cc21)C1C=C[C@H]3C1=O [Compound 14]
- stability (in words) [3]: relatively low

SMILES: C1=C[C@@H]2c3cc4cc5cc6c(cc5cc4cc3[C@@H]1[C@]21OCCO1)[C@H]1C=C[C@@H]6[C@]12OCCO2 [Compound 16]
- fragmentation / dissociation temperature of ethylene ketal (CO2 and ethylene released) ([4]; TGA): about 225 °C

SMILES: O=C1[C@@H]2C=C[C@@H]1c1cc3cc4cc5ccccc5cc4cc3cc12 [Compound 11]
- stability (in words) [3]: relatively low

SMILES: COC1(OC)C2C=CC1c1cc3cc4cc5c(cc4cc3cc12)C1C=CC5C1(OC)OC [Compound 25]
- solubility [2, 7]: good solubility
- decomposition temperature ([4]; anti isomer): 288 °C
- thermal conversion of spin-cast film to pentacene [4]: did not yield either pentacene or 1,2,3,4,8,9,10,11-octachloropentacene
- decomposition temperature ([4]; syn isomer): 252 °C

SMILES: C(=C\c1ccc2cc3cc(/C=C/c4ccccc4)ccc3cc2c1)/c1ccccc1 [Compound 38]
- solubility [1]: undesirably low solubility

SMILES: O=C1C2C=CC1c1cc3cc4cc5c(cc4cc3cc12)C1C=CC5C1=O [Compound 13]
- stability (in words) [3]: cannot be isolated at ambient temperature; also recorded: relatively low

SMILES: O=C1[C@H]2c3cc4ccccc4cc3[C@H]1c1cc3ccccc3cc12 [Compound 1, reference compound]
- solubility [2, 6]: ~700 µg/mL (≈ 2280 µM)
- temperature at which CO expulsion / decomposition starts ([4]; TGA, 10° C./min heating rate): 150 °C
- temperature of CO extrusion to pentacene [5]: 150 °C

SMILES: O=C1C2C=CC1c1cc3cc4cc5c(cc4cc3cc12)C1C=CC5C1=O [Compound 13A]
- stability (in words) [3]: decomposed readily at ambient conditions; also recorded: not stable enough to sustain at ambient conditions

SMILES: c1ccc2cc3cc4cc5ccccc5cc4cc3cc2c1 [pentacene]
- temperature up to which stable ([4]; pentacene produced from compound 2, TGA): 300 °C
